In PubChem BioAssay (NCI):
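Each compound was tested at five concentrations against cells in 96-well plates for 48 hours. At the GI50, growth is halved. TGI: total growth inhibition.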

Assays:
Experiment in all cases: DTP human tumour cell line panel, 48 h; in the data active = GI50 below about 0.43 µM; inactive = the rest
A549 NSCLC = tested on: A549 NSCLC
ACHN renal = tested on: ACHN renal
BT-549 breast = tested on: BT-549 breast
CAKI-1 renal = tested on: CAKI-1 renal
CCRF-CEM leukemia = tested on: CCRF-CEM leukemia
COLO 205 colon = tested on: COLO 205 colon
DU-145 prostate = tested on: DU-145 prostate
HCT-15 colon = tested on: HCT-15 colon
HL-60(TB) leukemia = tested on: HL-60(TB) leukemia
HOP-62 NSCLC = tested on: HOP-62 NSCLC
HOP-92 NSCLC = tested on: HOP-92 NSCLC
HS 578T breast = tested on: HS 578T breast
IGROV1 ovarian = tested on: IGROV1 ovarian
K-562 leukemia = tested on: K-562 leukemia
KM12 colon = tested on: KM12 colon
LOX IMVI melanoma = tested on: LOX IMVI melanoma
M14 melanoma = tested on: M14 melanoma
MALME-3M melanoma = tested on: MALME-3M melanoma
MCF7 breast = tested on: MCF7 breast
MOLT-4 leukemia = tested on: MOLT-4 leukemia
NCI-H226 lung = tested on: NCI-H226 lung
NCI-H23 lung = tested on: NCI-H23 lung
NCI-H522 lung = tested on: NCI-H522 lung
NCI/ADR-RES ovarian = tested on: NCI/ADR-RES ovarian
OVCAR-3 ovarian = tested on: OVCAR-3 ovarian
OVCAR-4 ovarian = tested on: OVCAR-4 ovarian
OVCAR-5 ovarian = tested on: OVCAR-5 ovarian
OVCAR-8 ovarian = tested on: OVCAR-8 ovarian
RPMI-8226 leukemia = tested on: RPMI-8226 leukemia
SF-268 CNS = tested on: SF-268 CNS
SF-295 CNS = tested on: SF-295 CNS
SK-MEL-28 melanoma = tested on: SK-MEL-28 melanoma
SK-MEL-5 melanoma = tested on: SK-MEL-5 melanoma
SK-OV-3 ovarian = tested on: SK-OV-3 ovarian
SNB-19 CNS = tested on: SNB-19 CNS
SR leukemia = tested on: SR leukemia
SW-620 colon = tested on: SW-620 colon
T-47D breast = tested on: T-47D breast
TK-10 renal = tested on: TK-10 renal
UACC-257 melanoma = tested on: UACC-257 melanoma
UO-31 renal = tested on: UO-31 renal
HCC-2998 colon = tested on: HCC-2998 colon
HCT-116 colon = tested on: HCT-116 colon
MDA-MB-231 breast = tested on: MDA-MB-231 breast
MDA-MB-435 = tested on: MDA-MB-435
PC-3 prostate = tested on: PC-3 prostate
SF-539 CNS = tested on: SF-539 CNS
SNB-75 CNS = tested on: SNB-75 CNS
UACC-62 melanoma = tested on: UACC-62 melanoma

S=C1NN=C2C(=C3CCCC4C5CCCCC5N2C34)N1 (centres undefined)
> 100000 nM: TGI (A549 NSCLC) | TGI (ACHN renal) | TGI (BT-549 breast) | TGI (CAKI-1 renal) | TGI (CCRF-CEM leukemia) | TGI (COLO 205 colon) | TGI (DU-145 prostate) | TGI (HCT-15 colon) | TGI (HL-60(TB) leukemia) | TGI (HOP-62 NSCLC) | TGI (HOP-92 NSCLC) | TGI (HS 578T breast) | TGI (IGROV1 ovarian) | TGI (K-562 leukemia) | TGI (KM12 colon) | TGI (LOX IMVI melanoma) | TGI (M14 melanoma) | TGI (MALME-3M melanoma) | TGI (MCF7 breast) | TGI (MOLT-4 leukemia) | TGI (NCI-H226 lung) | TGI (NCI-H23 lung) | TGI (NCI-H522 lung) | TGI (NCI/ADR-RES ovarian) | TGI (OVCAR-3 ovarian) | TGI (OVCAR-4 ovarian) | TGI (OVCAR-5 ovarian) | TGI (OVCAR-8 ovarian) | TGI (RPMI-8226 leukemia) | TGI (SF-268 CNS) | TGI (SF-295 CNS) | TGI (SK-MEL-28 melanoma) | TGI (SK-MEL-5 melanoma) | TGI (SK-OV-3 ovarian) | TGI (SNB-19 CNS) | TGI (SR leukemia) | TGI (SW-620 colon) | TGI (T-47D breast) | TGI (TK-10 renal) | TGI (UACC-257 melanoma) | TGI (UO-31 renal)

c1ccc2cc(Cn3c(-c4ccc5ccccc5c4)[n+](Cc4ccc5ccccc5c4)c4ccccc43)ccc2c1
1470 nM: TGI (HCC-2998 colon)
2300 nM: TGI (UO-31 renal)
1280 nM: TGI (SK-MEL-28 melanoma)
1030 nM: TGI (MDA-MB-435)
inactive: GI50 (ACHN renal) 752 nM | GI50 (NCI-H226 lung) 481 nM | GI50 (UO-31 renal) 781 nM
1590 nM: TGI (OVCAR-5 ovarian)
944 nM: TGI (HL-60(TB) leukemia)
649 nM: TGI (MALME-3M melanoma)
869 nM: TGI (KM12 colon)
2040 nM: TGI (ACHN renal)
961 nM: TGI (MDA-MB-231 breast)
763 nM: TGI (PC-3 prostate)
1520 nM: TGI (DU-145 prostate) | TGI (SF-539 CNS)
active: GI50 (DU-145 prostate) 399 nM | GI50 (HCC-2998 colon) 365 nM | GI50 (HCT-116 colon) 193 nM | GI50 (HL-60(TB) leukemia) 293 nM | GI50 (HOP-92 NSCLC) 85.2 nM | GI50 (KM12 colon) 269 nM | GI50 (MALME-3M melanoma) 215 nM | GI50 (MDA-MB-231 breast) 218 nM | GI50 (MDA-MB-435) 296 nM | GI50 (OVCAR-5 ovarian) 410 nM | GI50 (PC-3 prostate) 228 nM | GI50 (SF-539 CNS) 381 nM | GI50 (SK-MEL-28 melanoma) 362 nM | GI50 (SNB-75 CNS) 182 nM | GI50 (SW-620 colon) 310 nM | GI50 (UACC-62 melanoma) 277 nM
1220 nM: TGI (SW-620 colon)
2460 nM: TGI (NCI-H226 lung)
890 nM: TGI (UACC-62 melanoma)
827 nM: TGI (SNB-75 CNS)
416 nM: TGI (HOP-92 NSCLC)
598 nM: TGI (HCT-116 colon)
